Assay [1] deals with T1, human somatostatin receptor subtype 5 (Homo sapiens, UniProt P35346).
T1 construct: expressed in transfected cells
Description: cAMP assay for SST5R (inhibition of cAMP in CHO-K1 cells). The format is cell-based. The note with it: for EC50: inhibition of cAMP via human SST5 receptor, read-out: SST5 potency; for Fold selectivity for SST5 vs SST2: class symbols, SST5 receptor over SST2 receptor. An outline of the steps:
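CHO-K1 cells stably expressing human SSTR5 were treated 20 min at 37 °C with compounds plus 1.6 μM NKH477 in HBSS, 0.5 mM HEPES pH 7.4, 0.1% BSA, 0.2 mM IBMX. Lysate cAMP measured by HTRF against a standard curve; EC50 from cAMP-versus-concentration plots.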
In general terms: Cyclic AMP is a second messenger, typically raised through Gs and lowered through Gi signalling.

Assay [2] has as its target T2, human somatostatin receptor subtype 2 (Homo sapiens, UniProt P30874).
T2 construct: expressed in transfected cells
Briefly: cAMP assay for SST2R (inhibition of cAMP in CHO-K1 cells). The format is cell-based. The settings on record: Table B; inhibition of cAMP via human SST2 receptor; read-out: SST2 potency. From the text:
General overview: All five SSTR subtypes are Gi coupled G-protein coupled receptors (GPCRs) that lead to decreases in intracellular cyclic AMP (cAMP) when activated by an agonist. Therefore, measurement of intracellular cAMP levels can be used to assess whether compounds of the invention are agonists of SSTR subtypes (John Kelly, Troy Stevens, W. Joseph Thompson, and Roland Seifert, Current Protocols in Pharmacology, 2005, 2.2.1-2.2). One example of an intracellular cAMP assay is described below.
cAMP Assay Protocol for SST2R:
Four days prior to the assay, 5,000 Chinese hamster ovary cells (CHO-K1, ATCC #CCL-61) stably expressing the human somatostatin receptor subtype 2 are plated in each well of a 96-well tissue culture-treated plate in Ham's F12 growth media (ThermoFisher #10-080-CM) supplemented with 10% donor bovine serum (Gemini Bio-Products #100-506), 100 U/mL penicillin; 100 μg/mL streptomycin; 2 mM L-glutamine (Gemini Bio-Products #400-110) and 0.2 mg/mL hygromycin B (GoldBio #31282-04-9). The cells are cultured at 37° C., 5% CO2 and 95% humidity. On the day of the assay, the media is aspirated and the cells are treated with 50 μL of 1.6 μM NKH477 (Sigma #N3290) plus various dilutions of compounds of the invention in assay buffer [1× Hank's Balanced Salt Solution (ThermoFisher #SH3058802), 0.5 mM HEPES pH 7.4, 0.1% bovine serum albumin, 0.2 mM 3-Isobutyl-1-methylxanthine (IBMX, VWR #200002-790)]. The cells are incubated for 20 minutes at 37° C. […] The cells are treated with 50 μL of lysis buffer (HRTF cAMP kit, Cisbio). The lysate is transferred to 384-well plates and cAMP detection and visualization antibodies are added and incubated for 1-24 hours at room temperature. The time-resolved fluorescent signal is read with a Tecan M1000Pro multiplate reader. The intracellular cAMP concentrations are calculated by regression to a standard curve and are plotted vs. the concentration of the compounds of the invention and the EC50 of the compounds are calculated using standard methods. All data manipulations are in GraphPad Prism v6 or v7.

Where two headings read alike, the source gives them in different places.

T2 sequence (P30874 whole entry): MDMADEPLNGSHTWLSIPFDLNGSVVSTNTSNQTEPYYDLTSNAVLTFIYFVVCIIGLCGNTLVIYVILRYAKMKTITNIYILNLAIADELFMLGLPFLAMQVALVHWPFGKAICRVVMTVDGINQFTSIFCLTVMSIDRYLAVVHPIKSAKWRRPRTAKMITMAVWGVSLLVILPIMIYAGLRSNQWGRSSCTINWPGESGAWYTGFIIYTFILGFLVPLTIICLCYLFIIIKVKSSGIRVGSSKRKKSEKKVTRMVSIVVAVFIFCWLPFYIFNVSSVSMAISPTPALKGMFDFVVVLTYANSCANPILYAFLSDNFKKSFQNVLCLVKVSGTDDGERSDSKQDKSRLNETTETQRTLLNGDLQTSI
T1 sequence (P35346 whole entry): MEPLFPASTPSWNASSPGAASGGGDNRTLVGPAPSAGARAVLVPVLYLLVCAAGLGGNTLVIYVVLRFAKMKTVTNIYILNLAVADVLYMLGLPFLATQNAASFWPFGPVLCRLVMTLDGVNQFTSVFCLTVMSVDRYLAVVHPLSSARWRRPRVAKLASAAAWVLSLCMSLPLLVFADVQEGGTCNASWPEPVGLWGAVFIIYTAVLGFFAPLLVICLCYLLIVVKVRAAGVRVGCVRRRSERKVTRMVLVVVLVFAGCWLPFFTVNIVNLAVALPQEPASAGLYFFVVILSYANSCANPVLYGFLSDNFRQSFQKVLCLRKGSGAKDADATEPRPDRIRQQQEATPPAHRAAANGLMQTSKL

In the case of `Cc1ncc(C(=O)N[C@@H](C)C2CC2)c(N2CC[C@](C)(N)C2)c1-c1cncc(F)c1` [1-160, 4-[(3S)-3-amino-3-methylpyrrolidin-1-yl]-N-[(1S)-1-cyclopropylethyl]-5′-fluoro-2-methyl-[3,3′-bipyridine]-5-carboxamide], the EC50 in assay [1] (Table A) is < 10 nM; in assay [1] (Table B), < 10 nM; in assay [2], 100 to 1000 nM. Also, the “Fold selectivity for SST5 vs SST2” value in assay [1] (Table B) is given as “+++ (+++=>500)”.
With `C[C@H](NC(=O)c1cncc(-c2cc(F)cc(F)c2)c1N1CC[C@](C)(N)C1)C(F)(F)F` [1-54, 4-[(3S)-3-amino-3-methylpyrrolidin-1-yl]-5-(3,5-difluorophenyl)-N-[(2S)-1,1,1-trifluoropropan-2-yl]pyridine-3-carboxamide], the values for the EC50 in assay [1] (Table A), in assay [1] (Table B) and in assay [2] were < 10 nM, < 10 nM and 100 to 1000 nM, respectively. In assay [1] (Table B), the “Fold selectivity for SST5 vs SST2” value is “++ (++=100 to 499)”.
For the compound `C[C@]1(N)CCN(c2c(C(=O)Nc3ccccc3F)cncc2-c2ccc(F)c(C#N)c2)C1` [1-4, 4-[(3S)-3-amino-3-methylpyrrolidin-1-yl]-5-(3-cyano-4-fluorophenyl)-N-(2-fluorophenyl)pyridine-3-carboxamide], the EC50 is < 10 nM in assay [1] (Table A), < 10 nM in assay [1] (Table B) and 100 to 1000 nM in assay [2]. For the same compound, the “Fold selectivity for SST5 vs SST2” value in assay [1] (Table B) is reported as “++ (++=100 to 499)”.
For the compound `Cc1ncc(C(=O)N[C@@H](C)C(F)(F)F)c(N2CC[C@H](N)C2)c1-c1cc(F)cc(OC(F)F)c1` [1-231, 4-[(3S)-3-aminopyrrolidin-1-yl]-5-[3-(difluoromethoxy)-5-fluorophenyl]-6-methyl-N-[(2S)-1,1,1-trifluoropropan-2-yl]pyridine-3-carboxamide], the EC50 in assay [1] (Table A) was < 10 nM; in assay [1] (Table B), < 10 nM; in assay [2], 100 to 1000 nM. Besides, in assay [1] (Table B), the “Fold selectivity for SST5 vs SST2” value is recorded as “+++ (+++=>500)”.
`COc1ncc(C(=O)N[C@@H](C)C2CC2)c(N2CC[C@](C)(N)C2)c1-c1cc(F)cc(C#N)c1` [1-153, 4-[(3S)-3-amino-3-methylpyrrolidin-1-yl]-5-(3-cyano-5-fluorophenyl)-N-[(1S)-1-cyclopropylethyl]-6-methoxypyridine-3-carboxamide]: the EC50 was < 10 nM in assay [1] (Table A), < 10 nM in assay [1] (Table B) and 100 to 1000 nM in assay [2]. Besides, the “Fold selectivity for SST5 vs SST2” value in assay [1] (Table B) is reported as “+++ (+++=>500)”.
`COc1cc(-c2c(C)ncc(C(=O)NC3CCCCC3)c2N2CC[C@](C)(N)C2)ccn1` [1-255, 4-[(3S)-3-amino-3-methylpyrrolidin-1-yl]-N-cyclohexyl-2′-methoxy-2-methyl-[3,4′-bipyridine]-5-carboxamide]: the EC50 in assay [1] (Table A) is < 10 nM; in assay [1] (Table B), < 10 nM; in assay [2] it was > 1000 nM. Moreover, the “Fold selectivity for SST5 vs SST2” value in assay [1] (Table B) is “+++ (+++=>500)”.
For `C[C@H](NC(=O)c1cnc(C#N)c(-c2cc(F)cc(F)c2)c1N1C[C@@H](N)[C@H](F)C1)C1CC1` [1-135, 4-[(3R,4R)-3-amino-4-fluoropyrrolidin-1-yl]-6-cyano-N-[(1S)-1-cyclopropylethyl]-5-(3,5-difluorophenyl)pyridine-3-carboxamide], the EC50 in assay [1] (Table A) was < 10 nM; in assay [1] (Table B), < 10 nM; in assay [2] it was 100 to 1000 nM. Further, the “Fold selectivity for SST5 vs SST2” value in assay [1] (Table B) is given as “+++ (+++=>500)”.
In the case of `N#Cc1ncc(C(=O)NC2CCCCCC2)c(N2CC[C@H](N)C2)c1-c1cc(F)cc(F)c1` [1-73, 4-[(3S)-3-aminopyrrolidin-1-yl]-6-cyano-N-cycloheptyl-5-(3,5-difluorophenyl)pyridine-3-carboxamide], the EC50 in assay [1] (Table A) was < 10 nM; in assay [1] (Table B) it was < 10 nM; in assay [2] it was > 1000 nM. Moreover, the “Fold selectivity for SST5 vs SST2” value in assay [1] (Table B) is “+++ (+++=>500)”.
As to `COc1ncc(C(=O)N[C@@H](C)C2CC2)c(N2CC[C@](C)(N)C2)c1-c1ccc(Cl)c(F)c1` [1-263, 4-[(3S)-3-amino-3-methylpyrrolidin-1-yl]-5-(4-chloro-3-fluorophenyl)-N-[(1S)-1-cyclopropylethyl]-6-methoxypyridine-3-carboxamide], the EC50 was < 10 nM in assay [1] (Table A), < 10 nM in assay [1] (Table B) and > 1000 nM in assay [2]. The “Fold selectivity for SST5 vs SST2” value in assay [1] (Table B) is “+++ (+++=>500)”.
As for `Cc1ncc(C(=O)N[C@@H](C)C(F)(F)F)c(N2CC[C@](C)(N)C2)c1-c1cc(F)cc(OC(F)F)c1` [1-171, 4-[(3S)-3-amino-3-methylpyrrolidin-1-yl]-5-[3-(difluoromethoxy)-5-fluorophenyl]-6-methyl-N-[(2S)-1,1,1-trifluoropropan-2-yl]pyridine-3-carboxamide], the EC50 in assay [1] (Table A) is < 10 nM; in assay [1] (Table B), < 10 nM; in assay [2], 10 to 100 nM. In addition, the “Fold selectivity for SST5 vs SST2” value in assay [1] (Table B) is recorded as “+++ (+++=>500)”.
Consider `Cc1ncc(C(=O)N[C@@H](C)C2CC2)c(N2CC[C@](C)(N)C2)c1-c1ccnc(C(F)(F)F)c1` [1-159, 4-[(3S)-3-amino-3-methylpyrrolidin-1-yl]-N-[(1S)-1-cyclopropylethyl]-2-methyl-2′-(trifluoromethyl)-[3,4′-bipyridine]-5-carboxamide], for which the results for the EC50 in assay [1] (Table A), in assay [1] (Table B) and in assay [2] were < 10 nM, < 10 nM and > 1000 nM, respectively. The “Fold selectivity for SST5 vs SST2” value in assay [1] (Table B) is “+++ (+++=>500)”.
For the compound `Cc1ncc(C(=O)N[C@@H](C)C2CC2)c(N2CC[C@](C)(N)C2)c1-c1cc(F)cc(Cl)c1` [1-125, 4-[(3S)-3-amino-3-methylpyrrolidin-1-yl]-5-(3-chloro-5-fluorophenyl)-N-[(1S)-1-cyclopropylethyl]-6-methylpyridine-3-carboxamide], the EC50 is < 10 nM in assay [1] (Table A), < 10 nM in assay [1] (Table B) and 10 to 100 nM in assay [2]. Further, the “Fold selectivity for SST5 vs SST2” value in assay [1] (Table B) was “+++ (+++=>500)”.
On to `N#Cc1ncc(C(=O)NC23CC(C2)C3)c(N2CC[C@H](N)C2)c1-c1cc(F)cc(Cl)c1` [1-90, 4-[(3S)-3-aminopyrrolidin-1-yl]-N-{bicyclo[1.1.1]pentan-1-yl}-5-(3-chloro-5-fluorophenyl)-6-cyanopyridine-3-carboxamide], for which the EC50 in assay [1] (Table A) is < 10 nM; in assay [1] (Table B), < 10 nM; in assay [2], 100 to 1000 nM. The “Fold selectivity for SST5 vs SST2” value in assay [1] (Table B) was “+++ (+++=>500)”.
Turning to `C[C@H](NC(=O)c1cnc(C#N)c(-c2cnoc2)c1N1CC[C@](C)(N)C1)C1CC1` [1-134, 4-[(3S)-3-amino-3-methylpyrrolidin-1-yl]-6-cyano-N-[(1S)-1-cyclopropylethyl]-5-(1,2-oxazol-4-yl)pyridine-3-carboxamide], the EC50 in assay [1] (Table A) was < 10 nM.
Still for that read-out and setting: then `C[C@H](NC(=O)c1ncc(C(N)=O)c(-c2cc(F)cc(F)c2)c1N1CC[C@](C)(N)C1)C1CC1` [4-5, 3-[(3S)-3-amino-3-methylpyrrolidin-1-yl]-N2-[(1S)-1-cyclopropylethyl]-4-(3,5-difluorophenyl)pyridine-2,5-dicarboxamide], with > 1000 nM.
The same measure, in the same setting: then `Cn1ccc(CNC(=O)c2cnc(C#N)c(-c3cc(F)cc(F)c3)c2N2CC[C@](C)(N)C2)n1` [1-105, 4-[(3S)-3-amino-3-methylpyrrolidin-1-yl]-6-cyano-5-(3,5-difluorophenyl)-N-[(1-methyl-1H-pyrazol-3-yl)methyl]pyridine-3-carboxamide], with 10 to 100 nM.

The values above are taken from patent US12600709B2, “Nonpeptide somatostatin type 5 receptor agonists and uses thereof” (Crinetics Pharmaceuticals, Inc., priority 2019, dated 2026).
